Reference: patent publication US20230113037A1 (Bayer Aktiengesellschaft, priority 2019, published 2023)
Read-outs that look alike come from different tables or passages of the source.

Target: T1, AHR (Mus musculus, UniProt P30561)
T1 sequence (P30561 1-848 P471L/N533S/M589L): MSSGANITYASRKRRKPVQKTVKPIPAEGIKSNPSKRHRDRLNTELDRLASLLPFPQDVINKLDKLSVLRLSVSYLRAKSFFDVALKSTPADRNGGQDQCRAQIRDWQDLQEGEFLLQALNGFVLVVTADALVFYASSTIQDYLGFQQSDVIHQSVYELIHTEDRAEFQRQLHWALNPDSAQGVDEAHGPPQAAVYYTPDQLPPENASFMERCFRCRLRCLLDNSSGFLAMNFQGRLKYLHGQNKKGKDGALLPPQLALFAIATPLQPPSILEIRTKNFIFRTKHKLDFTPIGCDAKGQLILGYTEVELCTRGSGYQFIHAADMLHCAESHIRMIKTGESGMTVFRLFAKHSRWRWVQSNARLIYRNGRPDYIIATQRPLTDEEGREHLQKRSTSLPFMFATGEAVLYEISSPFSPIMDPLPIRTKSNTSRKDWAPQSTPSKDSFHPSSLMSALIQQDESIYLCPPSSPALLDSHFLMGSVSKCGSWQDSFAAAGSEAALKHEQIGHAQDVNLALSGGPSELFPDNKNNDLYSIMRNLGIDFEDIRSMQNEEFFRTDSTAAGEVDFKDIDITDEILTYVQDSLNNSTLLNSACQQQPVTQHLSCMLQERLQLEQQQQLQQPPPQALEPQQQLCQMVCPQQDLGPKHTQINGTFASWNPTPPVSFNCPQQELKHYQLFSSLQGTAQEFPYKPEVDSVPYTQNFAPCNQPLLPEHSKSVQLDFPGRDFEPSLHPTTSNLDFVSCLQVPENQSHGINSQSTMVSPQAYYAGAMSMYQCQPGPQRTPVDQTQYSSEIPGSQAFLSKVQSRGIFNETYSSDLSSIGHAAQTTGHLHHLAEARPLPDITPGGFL
Experiment: In vitro assay 3: antagonism in mouse cell line (AHR transactivation, firefly luciferase reporter, kynurenic acid prestimulated)
Type: cell-based
Conditions: 200 μM kynurenic acid, 20 hours, read-out: AHR Antagonism Mouse IC50
Experimental: Examples were tested in selected biological assays one or more times. When tested more than once, data are reported as either average values or as median values, wherein • the average value, also referred to as the arithmetic mean value, represents the sum of the values obtained divided by the number of times tested, and • the median value represents the middle number of the group of values when ranked in ascending or descending order. If the number of values in the data set is odd, the median is the middle value. If the number of values in the data set is even, the median is the arithmetic mean of the two middle values.
In addition the cells were stably transfected with an AHR inducible firefly luciferase reporter gene construct that carried AHR-binding sites (DRE) in its promoter. Kynurenic acid is an endogenous AHR activating ligand and was used to prestimulate test cells prior to testing the antagonistic properties of compounds.
As positive inhibition control cells without addition of kynurenic acid were incubated. Normalization was done by positive and negative controls.
Firefly luciferase activity was determined by the SteadyGlo Luciferase Assay System (Promega, #E2550).

[1] = Hepa 1c1c7 cells, firefly luciferase reporter

Compound | IC50 (mouse Hepa 1c1c7 cells) [µM] | IC50 [1] [µM]
COc1ccc(-c2nc3c4cc(C(F)(F)F)ccc4nc(N[C@@H]4CNCCNC4=O)n3n2)cc1 [Example 418, (6R)-6-{[2-(4-methoxyphenyl)-9-(trifluoromethyl)[1,2,4]triazolo[1,5-c]quinazolin-5-yl]amino}-1,4-diazepan-5-one] | 8.71 | –
COc1ccc(-c2nc3c4ccccc4nc(NC4CCNC4=O)n3n2)cc1 (stereo not drawn) [Example 31, 3-{[2-(4-methoxyphenyl)[1,2,4]triazolo[1,5-c]quinazolin-5-yl]amino}pyrrolidin-2-one] | 0.0134 | –
COc1ccc(-c2nc3c4ccccc4nc(N[C@H](CC(C)C)C(N)=O)n3n2)cc1 [Example 27, N^2-[2-(4-methoxyphenyl)[1,2,4]triazolo[1,5-c]quinazolin-5-yl]-D-leucinamide] | 0.00969 | –
Cc1ccc(-c2nc3c4ccccc4nc(N[C@@H]4CCCCNC4=O)n3n2)cc1 [Example 56, (3R)-3-{[2-(4-methylphenyl)[1,2,4]triazolo[1,5-c]quinazolin-5-yl]amino}azepan-2-one] | 0.00018 | –
COc1ccc(-c2nc3c4c(Cl)cccc4nc(NC4CNCCNC4=O)n3n2)cc1 (single isomer, unassigned) [Example 296, 6-{[10-Chloro-2-(4-methoxyphenyl)[1,2,4]triazolo[1,5-c]quinazolin-5-yl]amino}-1,4-diazepan-5-one] | 0.0731 | –
COc1cccc(-c2nc3c4cc(C)ccc4nc(N[C@H]4CCCCNC4=O)n3n2)c1 [Example 156, (3S)-3-{[2-(3-methoxyphenyl)-9-methyl[1,2,4]triazolo[1,5-c]quinazolin-5-yl]amino}azepan-2-one] | 0.0142 | –
N#Cc1ccc(-c2nc3c4ccccc4nc(N[C@@H]4CCNC4=O)n3n2)cc1 [Example 388, 4-(5-{[(3R)-2-oxopyrrolidin-3-yl]amino}[1,2,4]triazolo[1,5-c]quinazolin-2-yl)benzonitrile] | 2.89 | –
Cn1cc(-c2nc3c4ccccc4nc(N[C@H](CO)C(N)=O)n3n2)cn1 [Example 16, N^2-[2-(1-methyl-1H-pyrazol-4-yl)[1,2,4]triazolo[1,5-c]quinazolin-5-yl]-D-serinamide] | > 20 | –
O=C1NCCNC[C@@H]1Nc1nc2ccccc2c2nc(-c3ccc(F)cc3)nn12 [Example 965, (6S)-6-{[2-(4-fluorophenyl)[1,2,4]triazolo[1,5-c]quinazolin-5-yl]amino}-1,4-diazepan-5-one] | – | 0.012
O=C1NCCNCC1Nc1nc2cccc(Cl)c2c2nc(-c3ccc(F)cc3)nn12 (stereo not drawn) [Example 293, 6-{[10-chloro-2-(4-fluorophenyl)[1,2,4]triazolo[1,5-c]quinazolin-5-yl]amino}-1,4-diazepan-5-one] | 0.0561 | –
COc1ccc(-c2nc3c4ccccc4nc(NC4CCCNC4=O)n3n2)cc1 (stereo not drawn) [Example 28, 3-{[2-(4-methoxyphenyl)[1,2,4]triazolo[1,5-c]quinazolin-5-yl]amino}piperidin-2-one] | 0.00656 | –
COc1ccc(-c2nc3c4cccc(N(C)C)c4nc(N[C@@H]4CCCCNC4=O)n3n2)cc1 [Example 829, (3R)-3-{[7-(dimethylamino)-2-(4-methoxyphenyl)[1,2,4]triazolo[1,5-c]quinazolin-5-yl]amino}azepan-2-one] | – | 0.0468
O=C1NCCNC[C@H]1Nc1nc2ccccc2c2nc(-c3ccc(F)cc3)nn12 [Example 260, (6R)-6-{[2-(4-fluorophenyl)[1,2,4]triazolo[1,5-c]quinazolin-5-yl]amino}-1,4-diazepan-5-one] | 0.00675 | –
COc1ccc(-c2nc3c4ccccc4nc(N[C@H](CO)C(N)=O)n3n2)cc1 [Example 26, N^2-[2-(4-methoxyphenyl)[1,2,4]triazolo[1,5-c]quinazolin-5-yl]-D-serinamide] | 0.0167 | –
COc1ccc(-c2nc3c4c(C)cccc4nc(NC4CNCCNC4=O)n3n2)cc1 (stereo not drawn) [Example 192, 6-{[2-(4-methoxyphenyl)-10-methyl[1,2,4]triazolo[1,5-c]quinazolin-5-yl]amino}-1,4-diazepan-5-one] | 0.0349 | –
COc1cccc(-c2nc3c4ccccc4nc(N[C@@H](C(=O)O)C(C)C)n3n2)c1 [Example 94, N-[2-(3-methoxyphenyl)[1,2,4]triazolo[1,5-c]quinazolin-5-yl]-D-valine] | 0.017 | –
O=C1NCCCC[C@H]1Nc1nc2c(F)cccc2c2nc(-c3ccc(F)cc3)nn12 [Example 139, (3R)-3-{[7-fluoro-2-(4-fluorophenyl)[1,2,4]triazolo[1,5-c]quinazolin-5-yl]amino}azepan-2-one] | 0.000258 | –
CC[C@H](Nc1nc2ccccc2c2nc(-c3cccc(OC(F)(F)F)c3)nn12)C(N)=O [Example 448, (2S)-2-({2-[3-(trifluoromethoxy)phenyl][1,2,4]triazolo[1,5-c]quinazolin-5-yl}amino)butanamide] | 0.134 | –
COc1ccc(-c2nc3c4cc(C(F)(F)F)ccc4nc(N[C@@H]4CCCCNC4=O)n3n2)cc1 [Example 545, (3R)-3-{[2-(4-methoxyphenyl)-9-(trifluoromethyl)[1,2,4]triazolo[1 ,5-c]quinazolin-5-yl]amino}azepan-2-one] | > 20 | –
O=C1NCCC[C@H]1Nc1nc2ccccc2c2nc(-c3ccc(Cl)cc3OC(F)F)nn12 [Example 527, (3R)-3-({2-[4-chloro-2-(difluoromethoxy)phenyl][1,2,4]triazolo[1,5-c]quinazolin-5-yl}amino)piperidin-2-one] | 0.00553 | –
O=C1NCCCC[C@@H]1Nc1nc2ccccc2c2nc(-c3ccc(Cl)cc3)nn12 [Example 7, (3S)-3-{[2-(4-chlorophenyl)[1,2,4]triazolo[1,5-c]quinazolin-5-yl]amino}azepan-2-one] | 0.00244 | –
COc1ccc(-c2nc3c4cc(C)ccc4nc(N[C@@H]4CNCCNC4=O)n3n2)cc1 [Example 280, (6R)-6-{[2-(4-methoxyphenyl)-9-methyl[1,2,4]triazolo[1,5-c]quinazolin-5-yl]amino}-1,4-diazepan-5-one] | 0.0333 | –
COc1ccc(-c2nc3c4c(C)cccc4nc(N[C@@H]4CNCCNC4=O)n3n2)cc1 [Example 290, (6R)-6-{[2-(4-methoxyphenyl)-10-methyl[1,2,4]triazolo[1,5-c]quinazolin-5-yl]amino}-1,4-diazepan-5-one] | 0.288 | –
O=C1NCCNC[C@H]1Nc1nc2c(F)cccc2c2nc(-c3ccc(F)cc3)nn12 [Example 427, (6R)-6-{[7-fluoro-2-(4-fluorophenyl)[1,2,4]triazolo[1,5-c]quinazolin-5-yl]amino}-1,4-diazepan-5-one] | 0.00316 | –
COc1cccc(-c2nc3c4ccccc4nc(N[C@H](CCSC)C(N)=O)n3n2)c1 [Example 96, N^2-[2-(3-methoxyphenyl)[1,2,4]triazolo[1,5-c]quinazolin-5-yl]-D-methioninamide] | 0.269 | –
O=C1NCC[C@H]1Nc1nc2ccccc2c2nc(-c3ccc(OC(F)(F)F)cc3)nn12 [Example 327, (3R)-3-({2-[4-(trifluoromethoxy)phenyl][1,2,4]triazolo[1,5-c]quinazolin-5-yl}amino)pyrrolidin-2-one] | 0.00529 | –
O=C1NCCCC[C@H]1Nc1nc2c(C(F)(F)F)cccc2c2nc(-c3ccc(Cl)cc3OC(F)(F)F)nn12 [Example 672, (3R)-3-({2-[4-chloro-2-(trifluoromethoxy)phenyl]-7-(trifluoromethyl)[1,2,4]triazolo[1,5-c]quinazolin-5-yl}amino)azepan-2-one] | 0.00435 | –
